Reference: patent US8597632B2, “Anionic oligosaccharide conjugates” (Glycan Biosciences LLC, priority 2008, dated 2013)
Marks after values point to notes of the source that are not given here.

Experiments:
Format in all cases: in vivo
Guinea-pig anaphylaxis = Guinea-pig anaphylaxis model (OVA); details: for % of the animals died (anaphylaxis): 5 mg/kg intranasal 30 min prior to OVA
Source text: Guinea-pig anaphylaxis has for many years been considered the classical example of anaphylaxis, in contrast to other species (e.g. mice) that completely lack anaphylactic responses after allergen inhalation. Anaphylactic shock is believed to be due to liberation of histamine with subsequent contraction of smooth muscle after the inhalation of antigen into the airway and lungs. Contraction of the bronchial musculature completely shuts off the alveoli and prevents exhalation of air, and the animals die of asphyxia. In guinea-pigs allergen doses that are high enough to produce a significant late-phase responses (i.e. cellular eosinophilia, late phase exudation) inevitably also give rise to prior strong acute reactions that are so intense that some animals may die in acute airway constriction.
In this model the guinea pigs were sensitized to ovalbumin (OVA) twice (on days 0 and 7) by an intraperitoneal injection of 0.5 mL saline containing 100 mg Al(OH)3 and 2 μg OVA. Three weeks after the last sensitization, animals were anaesthetized and the exposure of the nasal cavity to allergen was performed by dropping OVA solution at 2 mg/mL into bilateral nasal cavities (20 μl per nasal cavity). For the negative control the animals received sensitization and challenge with saline. The animals are pretreated with either vehicle or drug (anionic oligosaccharide conjugates or Budesonide) 30 min prior to intranasal instillation of OVA. Vehicle or drugs are administered, 25 μl-50 μl/nostril. A comparison of the anionic oligosaccharide conjugates with Budesonide, as the reference compound, is included. In this study Budesonide at 0.65 mg/kg was not effective at preventing anaphylaxis as 70% of the animals in this group died by acute airway constriction.

[1] = tested on: guinea pig model of asthma; test: Guinea pig model of asthma (OVA)
[2] = tested on: allergic rhinitis model in the guinea pig; test: Allergic rhinitis model in the guinea pig (OVA); details: for % inhibition of protein content of the nasal lavage fluid (plasma exudation): 5 mg/kg intranasal 30 min before OVA, 8 hours after challenge; for eosinophil and neutrophil infiltration into nasal lavage fluid: 5 mg/kg, 8 hours after challenge (FIG. 3)
[3] = tested on: rat model of acute lung injury and ADRS; test: Rat model of acute lung injury and ARDS (LPS); details: intra-tracheal 0.5 and 2.5 mg/kg, 30 minutes before LPS
Source text: A rat model of acute lung injury and ADRS was used (Jansson, Lung 182:1-9, 2004). The model is based on the understanding that endotoxin found in common pathogens (e.g. bacteria) can lead to the development of ARDS, septic shock and multiple organ dysfunction syndrome in the clinical situation. Lipopolysaccharide (LPS), a component of the outer membrane of gram-negative bacteria is the prototypical example of endotoxin and exposure of the respiratory tract of rats to LPS can be used as a model of acute lung inflammation and ARDS. […]
Excised lung gas volume (ELGV) is measured by Archimedes' principle and is based on the stable amount of air trapped within the excised lungs at a transpulmonary pressure of 0 cmH2O. […] A density determination kit (P3000, Mettler-Toledo GmbH, Sweden) and optional density determination software for the balance were used on the basis of the principle that every solid body immersed in fluid loses weight, and is expressed as g/cm^3. […] ELGV is determined by the difference between bracket weight and lung buoyancy in the liquid. […] Indication of lung tissue edema was calculated by the difference between lung tissue weight outside the beaker and bracket weight. The lung tissue density was determined by the ratio of the lung weight (difference between lung tissue weight outside the beaker and holder weight) and the air volume within the lung (ELGV). […]

mouse model of emphysema = test: Mouse model of emphysema / COPD (cigarette smoke)
Description: A mouse model of emphysema was used. Acute or chronic exposure of mice to cigarette smoke lead to lung responses that in part mimic the inflammatory and structural changes observed in COPD. In this model male C57Bl/6J mice are subjected to acute or chronic smoke exposure, with normal room air being the control situation. In the acute study mice were exposed to either room air or to the smoke of five cigarettes (approximately 12 mg of tar and 0.9 mg of nicotine) for 20 minutes. In the chronic study mice were exposed to either room air or to the smoke of three cigarettes/day for 5 days/week for 6 months. The 4 groups of mice were then further divided so that mice within each group also received various anionic oligosaccharide conjugates via an inhaled route.
In the acute exposure groups of mice anionic oligosaccharide conjugates were given 30 minutes before exposure to cigarette smoke. Assessment of the efficacy of the drug for mice in the acute exposure groups involved assessment of trolox equivalent anti-oxidant capacity of the bronchoalveolar lavage fluid (BALF) at the end of smoke exposure. The BALF was examined for cytokines and chemokines that are associated with an inflammatory response. The levels of these agents were determined at 4 hours after exposure and at 24 hours after cigarette smoke exposure. A range of cytokines and chemokines was measured. These included: IL-1α, IL-1β, IL-2, IL-3, IL-4, IL-5, IL-6, IL-10, IL-12, RANTES, MIP-1α, cytokine-induced neutrophil chemoattractant (KC), TNF-α and IFN-γ). A differential cell count of the cells in the BALF was also determined.
The animals in the chronic study received the anionic oligosaccharide conjugates (including ID 9) once a day for the duration of the experiment. At the completion of the experiment animals were killed and the lungs fixed intratracheally with formalin (5%) and lung volume was measured by water displacement. […] The level of desmosine in the lung tissue was also determined. […]

[4] = 0.1 mg/kg pretreatment (FIG. 5)
[5] = drug 0.1 mg/kg intra-tracheal, MCh (10 mg/mL)
[6] = drug 0.1 mg/kg intra-tracheal, MCh (30 mg/mL)
[7] = drug 2.5 mg/kg intra-tracheal, MCh (10 mg/mL)
[8] = drug 2.5 mg/kg intra-tracheal, MCh (30 mg/mL)

CCCC1O[C@@H]2C[C@H]3[C@@H]4CCC5=CC(=O)C=C[C@]5(C)[C@H]4[C@@H](O)C[C@]3(C)[C@]2(C(=O)CO)O1 (some centres unmarked) [Budesonide, reference compound]
% of the animals died by acute airway constriction (Guinea-pig anaphylaxis; 0.65 mg/kg intranasal 30 min prior to OVA): 70% | inhibition of OVA induced leukocyte influx in BAL [1, 4]: 76% | AHR: Cdyn, % increase from that of the positive control [1, 5]: 97.2%** | AHR: RL, % inhibition from that of the positive control [1, 5]: 86.5%** | AHR: Cdyn, % increase from that of the positive control [1, 6]: 116.2%** | AHR: RL, % inhibition from that of the positive control [1, 6]: 105%** | AHR: Cdyn, % increase from that of the positive control [1, 7]: 19.7% | AHR: RL, % inhibition from that of the positive control [1, 7]: −89.4% | AHR: Cdyn, % increase from that of the positive control [1, 8]: 70.9%** | AHR: RL, % inhibition from that of the positive control [1, 8]: 98.9%**

(Maltopentaose)-(Et2)-(Maltopentaose) [ID 7]
% of the animals died (anaphylaxis) (Guinea-pig anaphylaxis): 27% | % inhibition of protein content of the nasal lavage fluid (plasma exudation) [2]: 91.4% | eosinophil and neutrophil infiltration into nasal lavage fluid [2]: only blocked eosinophils

(Maltopentaose)-Et4-(Maltopentaose) [ID 9]
inhibition of neutrophil infiltration (BAL) [3]: marked | % of the animals died (anaphylaxis) (Guinea-pig anaphylaxis): 35% | inhibition of OVA induced leukocyte influx in BAL [1, 4]: 62% | inhibition of OVA induced leukocyte influx in BAL ([1]; 2.5 mg/kg pretreatment (FIG. 5)): 85% | AHR: Cdyn, % increase from that of the positive control [1, 5]: 76.6%** | AHR: RL, % inhibition from that of the positive control [1, 5]: 75.3%* | AHR: Cdyn, % increase from that of the positive control [1, 6]: 90%** | AHR: RL, % inhibition from that of the positive control [1, 6]: 84.4%** | AHR: Cdyn, % increase from that of the positive control [1, 7]: 68.7%* | AHR: RL, % inhibition from that of the positive control [1, 7]: 80.5%** | AHR: Cdyn, % increase from that of the positive control [1, 8]: 128.4%** | AHR: RL, % inhibition from that of the positive control [1, 8]: 99.5%** | antigen induced elevated protein content of BAL ([1]; even at 0.1 mg/kg (FIG. 4)): very effectively inhibits the elevated protein content of BAL | lung function: development of Cdyn and RL ([1]; methacholine evoked bronchoconstriction, 8 hours after provocation): inhibited the development of both Cdyn and RL | numbers of neutrophils in BALF (mouse model of emphysema; acute cigarette smoke exposure): significantly attenuated | cellular infiltrate into BALF (mouse model of emphysema; acute cigarette smoke exposure, inhaled 30 minutes before exposure): decreased the cellular infiltrate into BALF | anti-inflammatory activity in COPD model (mouse model of emphysema; chronic smoke exposure, once a day): could act as anti-inflammatory agents | % inhibition of protein content of the nasal lavage fluid (plasma exudation) [2]: 51.5% | eosinophil and neutrophil infiltration into nasal lavage fluid [2]: particularly effective at blocking not only eosinophil infiltration but also neutrophil infiltration
